Counter-ions that a name gives are not always drawn.
Assays:
[1] = biological target: T1, recombinant guanylate cyclase reporter cell line (Rattus norvegicus, UniProt P19686+P20595); test: Effect on a recombinant guanylate cyclase reporter cell line (B-2); format: cell-based; details: MEC = minimum effective concentration, in some cases mean values for individual determinations
T1 construct: expressed in transfected cells
T1 sequence (P19686 1-690): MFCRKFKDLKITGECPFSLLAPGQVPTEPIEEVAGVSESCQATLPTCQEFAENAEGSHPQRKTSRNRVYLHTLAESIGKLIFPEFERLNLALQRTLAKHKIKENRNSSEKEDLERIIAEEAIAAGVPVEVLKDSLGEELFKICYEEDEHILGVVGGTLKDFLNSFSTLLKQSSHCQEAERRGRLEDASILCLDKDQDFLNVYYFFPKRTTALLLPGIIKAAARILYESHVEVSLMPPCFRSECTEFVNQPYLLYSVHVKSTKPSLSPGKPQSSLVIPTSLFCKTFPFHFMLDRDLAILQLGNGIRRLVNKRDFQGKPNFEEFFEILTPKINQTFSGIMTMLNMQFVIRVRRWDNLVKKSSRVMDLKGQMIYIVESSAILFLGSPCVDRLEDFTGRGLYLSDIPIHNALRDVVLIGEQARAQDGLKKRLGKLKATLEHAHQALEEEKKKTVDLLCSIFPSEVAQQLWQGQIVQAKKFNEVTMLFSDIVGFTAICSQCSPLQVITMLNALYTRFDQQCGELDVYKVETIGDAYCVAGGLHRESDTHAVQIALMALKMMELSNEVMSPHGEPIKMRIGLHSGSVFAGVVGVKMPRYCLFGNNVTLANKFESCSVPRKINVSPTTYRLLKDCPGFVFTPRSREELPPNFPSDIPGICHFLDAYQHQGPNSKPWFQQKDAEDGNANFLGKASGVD
T1 sequence (P20595 1-619): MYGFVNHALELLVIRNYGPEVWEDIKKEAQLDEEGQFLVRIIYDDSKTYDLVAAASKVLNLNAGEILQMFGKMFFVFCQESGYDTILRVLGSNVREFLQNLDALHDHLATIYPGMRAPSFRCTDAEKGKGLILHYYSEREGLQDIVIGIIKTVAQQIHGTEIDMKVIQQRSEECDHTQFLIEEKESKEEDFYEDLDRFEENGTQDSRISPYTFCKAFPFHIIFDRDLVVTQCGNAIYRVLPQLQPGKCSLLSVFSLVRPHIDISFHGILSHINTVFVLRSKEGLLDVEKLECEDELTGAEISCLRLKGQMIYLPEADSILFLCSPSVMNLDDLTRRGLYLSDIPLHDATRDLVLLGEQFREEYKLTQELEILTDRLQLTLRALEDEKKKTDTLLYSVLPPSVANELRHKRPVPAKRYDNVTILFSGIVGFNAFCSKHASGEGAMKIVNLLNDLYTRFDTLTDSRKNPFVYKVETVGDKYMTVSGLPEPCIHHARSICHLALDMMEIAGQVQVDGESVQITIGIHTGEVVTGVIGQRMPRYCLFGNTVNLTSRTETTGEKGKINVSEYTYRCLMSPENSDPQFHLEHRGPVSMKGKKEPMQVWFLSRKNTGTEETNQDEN
Protocol: B-2. Effect on a Recombinant Guanylate Cyclase Reporter Cell Line
The cellular activity of the compounds according to the invention is determined using a recombinant guanylate cyclase reporter cell line, as described in F. Wunder et al., Anal. Biochem. 339, 104-112 (2005).
Representative MEC values (MEC=minimum effective concentration) for the compounds of the invention are shown in Table 1 below (in some cases as mean values for individual determinations): […]

[2] = biological target: T2, human phosphodiesterase 5 (PDE 5) (Homo sapiens, UniProt O76074); test: Inhibition of human phosphodiesterase 5 (PDE 5) (B-3); format: biochemical; details: PDE 5 preparation from human platelets; [8-3H] cGMP substrate, SPA; in some cases means of individual determinations
T2 construct: PDE 5 preparations are obtained from human platelets by disruption; from tissue; host or cells: human platelets (Mono Q ion exchange fractions with PDE 5 activity)
Protocol: B-3. Inhibition of Human Phosphodiesterase 5 (PDE 5)
PDE 5 preparations are obtained from human platelets by disruption (Microfluidizer®, 800 bar, 3 passes), followed by centrifugation (75 000 g, 60 min, 4° C.) and ion exchange chromatography of the supernatant on a Mono Q 10/10 column (linear sodium chloride gradient, elution with a 0.2-0.3M solution of sodium chloride in buffer (20 mM Hepes pH 7.2, 2 mM magnesium chloride). Fractions having PDE 5 activity are combined (PDE 5 preparation) and stored at −80° C.
To determine their in vitro action on human PDE 5, the test substances are dissolved in 100% DMSO and serially diluted. Typically, dilution series (1:3) from 200 μM to 0.091 μM are prepared (resulting final concentrations in the test: 4 μM to 0.0018 μM). In each case 2 μl of the diluted substance solutions are placed into the wells of microtitre plates (Isoplate-96/200 W; Perkin Elmer). Subsequently, 50 μl of a dilution of the above-described PDE 5 preparation are added. The dilution of the PDE 5 preparation is chosen such that during the later incubation less than 70% of the substrate are converted (typical dilution: 1:100; dilution buffer: 50 mM tris/hydrochloric acid pH 7.5, 8.3 mM magnesium chloride, 1.7 mM EDTA, 0.2% BSA). The substrate, [8-^3H] cyclic guanosine-3′,5′-monophosphate (1 μCi/μl; Perkin Elmer), is diluted 1:2000 with assay buffer (50 mM tris/hydrochloric acid pH 7.5, 8.3 mM magnesium chloride, 1.7 mM EDTA) to a concentration of 0.0005 μCi/μl. By addition of 50 μl (0.025 μCi) of the diluted substrate, the enzyme reaction is finally started. The test mixtures are incubated at room temperature for 60 min and the reaction is stopped by adding 25 μl of a suspension of 18 mg/ml yttrium scintillation proximity beads in water (phosphodiesterase beads for SPA assays, RPNQ 0150, Perkin Elmer). The microtitre plates are sealed with a film and left to stand at room temperature for 60 min. Subsequently, the plates are analysed for 30 s per well in a Microbeta scintillation counter (Perkin Elmer). IC50 values are determined using the graphic plot of the substance concentration against percentage PDE 5 inhibition.

Compound | MEC [1] [µM] | IC50 [2] [nM]
Cc1nc2c(OCc3c(F)cccc3F)cccn2c1-c1nc(O)c2c(n1)NC(=O)C2(C)C(F)(F)F (racemic) [Example 8, rac-2-{8-[(2,6-Difluorobenzyl)oxy]-2-methylimidazo[1,2-a]pyridin-3-yl}-4-hydroxy-5-methyl-5-(trifluoromethyl)-5,7-dihydro-6H-pyrrolo[2,3-d]pyrimidin-6-one trifluoroacetate] | 1 | 120
Cc1nc2c(OCc3c(F)cccc3F)cccn2c1-c1nc(CNS(C)(=O)=O)c2c(n1)NC(=O)C2(C)C [Example 65, N-[(2-{8-[(2,6-Difluorobenzyl)oxy]-2-methylimidazo[1,2-a]pyridin-3-yl}-5,5-dimethyl-6-oxo-6,7-dihydro-5H-pyrrolo[2,3-d]pyrimidin-4-yl)methyl]methanesulphonamide] | 3 | 68
Cc1nc2c(OCc3c(F)cccc3F)cccn2c1-c1nc(I)c2c(n1)NC(=O)C2(C)C(F)(F)F (racemic) [Example 7, rac-2-{8-[(2,6-Difluorobenzyl)oxy]-2-methylimidazo[1,2-a]pyridin-3-yl}-4-iodo-5-methyl-5-(trifluoromethyl)-5,7-dihydro-6H-pyrrolo[2,3-d]pyrimidin-6-one trifluoroacetate (racemate)] | 2 | 590
Cc1nc2c(OCc3c(F)cccc3F)cccn2c1-c1nc(O)c2c(n1)NC(=O)C2(C)C [Example 5, 2-{8-[(2,6-Difluorobenzyl)oxy]-2-methylimidazo[1,2-a]pyridin-3-yl}-4-hydroxy-5,5-dimethyl-5,7-dihydro-6H-pyrrolo[2,3-d]pyrimidin-6-one trifluoroacetate] | 3 | 690
Cc1nc2c(OCc3c(F)cccc3F)cc(Cl)cn2c1-c1nc(N)c2c(n1)NC(=O)C2(C)C [Example 67, 4-Amino-2-{6-chloro-8-[(2,6-difluorobenzyl)oxy]-2-methylimidazo[1,2-a]pyridin-3-yl}-5,5-dimethyl-5,7-dihydro-6H-pyrrolo[2,3-d]pyrimidin-6-one] | 0.03 | 47
COCC(C)(N)CNc1nc(-c2c(C)nc3c(OCc4c(F)cccc4F)cccn23)nc2c1C(C)(C)C(=O)N2 (single isomer, unassigned; ent-4) [Example 46, ent-4-[(2-Amino-3-methoxy-2-methylpropyl)amino]-2-{8-[(2,6-difluorobenzyl)oxy]-2-methylimidazo[1,2-a]pyridin-3-yl}-5,5-dimethyl-5,7-dihydro-6H-pyrrolo[2,3-d]pyrimidin-6-one (Enantiomer B)] | 1 | 120
Cc1nc2c(OCc3c(F)ccc(F)c3F)cccn2c1-c1nc2c(c(-c3cc[nH]n3)n1)C(C)(C)C(=O)N2 [Example 74, 5,5-Dimethyl-2-{2-methyl-8-[(2,3,6-trifluorobenzyl)oxy]imidazo[1,2-a]pyridin-3-yl}-4-(1H-pyrazol-5-yl)-5,7-dihydro-6H-pyrrolo[2,3-d]pyrimidin-6-one] | 1 | 30
Cc1nc2c(OCc3c(F)cccc3F)cccn2c1-c1nc(NCC(N)C(F)(F)C(F)F)c2c(n1)NC(=O)C2(C)C (racemic) [Example 27, rac-4-[(2-amino-3,3,4,4-tetrafluorobutyl)amino]-2-{8-[(2,6-difluorobenzyl)oxy]-2-methylimidazo[1,2-a]pyridin-3-yl}-5,5-dimethyl-5,7-dihydro-6H-pyrrolo[2,3-d]pyrimidin-6-one] | 3 | 23
Cc1nc2c(OCc3c(F)cccc3F)cccn2c1-c1nc(NCC(C)(N)C(F)(F)F)c2c(n1)NC(=O)C2(C)C (racemic) [Example 40, rac-4-[(2-Amino-3,3,3-trifluoro-2-methylpropyl)amino]-2-{8-[(2,6-difluorobenzyl)oxy]-2-methylimidazo[1,2-a]pyridin-3-yl}-5,5-dimethyl-5,7-dihydro-6H-pyrrolo[2,3-d]pyrimidin-6-one] | 3 | 14
Cc1nc2c(OCc3c(F)ccc(F)c3F)cccn2c1-c1nc2c(c(C(=O)NCCC(F)(F)F)n1)C(C)(C)C(=O)N2 [Example 59, 5,5-dimethyl-2-{2-methyl-8-[(2,3,6-trifluorobenzyl)oxy]imidazo[1,2-a]pyridin-3-yl}-6-oxo-N-(3,3,3-trifluoropropyl)-6,7-dihydro-5H-pyrrolo[2,3-d]pyrimidine-4-carboxamide] | 0.3 | 1.7
Cc1nc2c(OCc3c(F)cccc3F)cccn2c1-c1nc(NCC(C)(N)C(F)F)c2c(n1)NC(=O)C2(C)C (racemic) [Example 39, rac-4-[(2-amino-3,3-difluoro-2-methylpropyl)amino]-2-{8-[(2,6-difluorobenzyl)oxy]-2-methylimidazo[1,2-a]pyridin-3-yl}-5,5-dimethyl-5,7-dihydro-6H-pyrrolo[2,3-d]pyrimidin-6-one] | 0.3 | 9.6
Cc1nc2c(OCc3c(F)ccc(F)c3F)cccn2c1-c1nc2c(c(N3CCC(CC(=O)O)CC3)n1)C(C)(C)C(=O)N2 [Example 38, [1-(5,5-dimethyl-2-{2-methyl-8-[(2,3,6-trifluorobenzyl)oxy]imidazo[1,2-a]pyridin-3-yl}-6-oxo-6,7-dihydro-5H-pyrrolo[2,3-d]pyrimidin-4-yl)piperidin-4-yl]acetic acid] | 3 | 36
Cc1nc2c(OCc3c(F)cccc3F)cccn2c1-c1nc2c(c(N[C@H]3CC[C@H](O)CC3)n1)C(C)(C)C(=O)N2 [Example 15, 2-{8-[(2,6-Difluorobenzyl)oxy]-2-methylimidazo[1,2-a]pyridin-3-yl}-4-[(trans-4-hydroxycyclohexyl)amino]-5,5-dimethyl-5,7-dihydro-6H-pyrrolo[2,3-d]pyrimidin-6-one] | 3 | 2.5
COc1ccc(CC(C)(N)CNc2nc(-c3c(C)nc4c(OCc5c(F)cccc5F)cccn34)nc3c2C(C)(C)C(=O)N3)cc1 (racemic) [Example 20, rac-4-{[2-amino-3-(4-methoxyphenyl)-2-methylpropyl]amino}-2-{8-[(2,6-difluorobenzyl)oxy]-2-methylimidazo[1,2-a]pyridin-3-yl}-5,5-dimethyl-5,7-dihydro-6H-pyrrolo[2,3-d]pyrimidin-6-one] | 3 | 110

From patent publication US9688699B2, “3-(pyrimidine-2-yl)imidazo[1,2-a]pyridines” (Bayer Pharma Aktiengesellschaft, priority 2014, dated 2017)
